The source of these data is PubChem BioAssay (NCI).

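These data come from cells grown in 96-well plates and exposed to compound for 48 hours at five concentrations. At the TGI there is no net growth.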

Some test systems named below: HOP-92 NSCLC; HT29 colon; SK-MEL-28 melanoma; SN12C renal; NCI-H226 lung; SF-268 CNS; NCI-H522 lung; U251 CNS; HCT-15 colon; T-47D breast; RXF 393 renal.
What all share (assay): NCI-60 cell line screen, 48 h

Take `O=C(Nc1ccccc1)c1cc(S(=O)(=O)Nc2n[nH]c(=O)[nH]2)c(SSc2cc(Cl)c(C(=O)Nc3ccccc3)cc2S(=O)(=O)Nc2n[nH]c(=O)[nH]2)cc1Cl`: the TGI in the assay with HOP-92 NSCLC, in the assay on HT29 colon, in the assay on SK-MEL-28 melanoma, with SN12C renal, in the assay on NCI-H226 lung and in the assay with SF-268 CNS was more than 100 µM each time. Further, the TGI in the assay on NCI-H522 lung, in the assay on U251 CNS and in the assay with HCT-15 colon was more than 100 µM throughout.

Consider `C/C=C1\CN2CCC34c5ccccc5N(C)C35OCC4(C(=O)OC)C1CC25` (stereo not given), for which the TGI in the assay on HOP-92 NSCLC, with SK-MEL-28 melanoma, with SN12C renal, with SF-268 CNS, with NCI-H522 lung and in the assay with U251 CNS was more than 100 µM in each case. Further, the TGI was 75.7 µM in the assay with T-47D breast and more than 100 µM with HCT-15 colon.

As for `CCn1nc(-c2ccccc2)c2c1N(C)c1ccccc1-n1c(-c3ccccc3)nnc1-2`, the TGI is 35.9 µM in the assay on HOP-92 NSCLC; 33.1 µM in the assay with SK-MEL-28 melanoma; 32.7 µM with SN12C renal; 52.7 µM in the assay with NCI-H226 lung; 32.5 µM with SF-268 CNS; 28.2 µM in the assay on U251 CNS. The TGI came out at 46.9 µM with T-47D breast and 23.4 µM with HCT-15 colon.

Turning to `CC(C)(C)OC(=O)NC1CCCC1C(O)(C1=CCCC1)C1=CCCC1` (stereo not given), the TGI in the assay with HOP-92 NSCLC, with HT29 colon, in the assay on RXF 393 renal, in the assay on SK-MEL-28 melanoma, in the assay with SN12C renal and in the assay with NCI-H226 lung was more than 100 µM in each case. Also, the TGI in the assay on SF-268 CNS, in the assay on U251 CNS, in the assay on T-47D breast and in the assay with HCT-15 colon was more than 100 µM throughout.

In the case of `CN1c2ccccc2C(=O)NC12CCN(Cc1ccccc1)CC2`, the TGI is 98.5 µM with HOP-92 NSCLC; more than 100 µM with HT29 colon; more than 100 µM with RXF 393 renal; more than 100 µM in the assay with SK-MEL-28 melanoma; more than 100 µM in the assay with SN12C renal; more than 100 µM in the assay with NCI-H226 lung. For the same compound, the TGI with SF-268 CNS, in the assay on U251 CNS, with T-47D breast and in the assay on HCT-15 colon was more than 100 µM each time.

Regarding `c1ccc2c(c1)nc1n2CCNC1`, the TGI in the assay on HOP-92 NSCLC, in the assay with HT29 colon, in the assay with RXF 393 renal, in the assay on SK-MEL-28 melanoma, in the assay with SN12C renal and in the assay with NCI-H226 lung was more than 100 µM in each case. Moreover, the TGI in the assay with SF-268 CNS, in the assay on U251 CNS, in the assay on T-47D breast and in the assay on HCT-15 colon was more than 100 µM in each case.

In the case of `O=c1[nH]c2nccnc2c2c([N+](=O)[O-])cccc12`, the TGI in the assay on HT29 colon, in the assay with RXF 393 renal, in the assay on SK-MEL-28 melanoma, in the assay on SN12C renal, with NCI-H226 lung and in the assay with SF-268 CNS was more than 100 µM throughout. Moreover, the TGI in the assay on NCI-H522 lung is more than 100 µM; in the assay with U251 CNS, more than 100 µM; with T-47D breast, 73.4 µM; in the assay with HCT-15 colon, more than 100 µM.

On to `CCOC(=O)CN=C1Nc2ccccc2C(=O)N2CSCC12` (stereo not given), for which the TGI in the assay on HT29 colon, with RXF 393 renal, with SK-MEL-28 melanoma, in the assay with SN12C renal, in the assay with NCI-H226 lung and with SF-268 CNS was more than 100 µM throughout. Besides, the TGI in the assay with NCI-H522 lung, with U251 CNS, in the assay on T-47D breast and with HCT-15 colon was more than 100 µM throughout.

Take `Cc1c(NC(=S)N/N=C\C(=N/NC(=S)Nc2c(C)n(C)n(-c3ccccc3)c2=O)c2ccccc2)c(=O)n(-c2ccccc2)n1C`: the TGI in the assay with HOP-92 NSCLC, with HT29 colon, with RXF 393 renal, with NCI-H226 lung, in the assay on SF-268 CNS and in the assay on U251 CNS was more than 100 µM throughout. In addition, the TGI in the assay with T-47D breast and in the assay with HCT-15 colon was more than 100 µM in each case.

For the compound `CC1(C)C2CCC1(C)C(N/C(=C(/C(Cl)=C(Cl)Cl)[N+](=O)[O-])n1nnc3ccccc31)C2` (stereo not given), the TGI is more than 100 µM in the assay with HT29 colon; 36.5 µM with RXF 393 renal; more than 100 µM in the assay with SK-MEL-28 melanoma; more than 100 µM in the assay on SN12C renal; 50.3 µM in the assay on NCI-H226 lung; 37.9 µM in the assay on SF-268 CNS. Also, the TGI in the assay on U251 CNS was 43.3 µM; with T-47D breast, more than 100 µM; with HCT-15 colon it was 93.4 µM.

Regarding `Cc1ccc(S(=O)(=O)N(CC(O)c2ccccc2)c2ccccc2F)cc1` (stereo not given), the TGI with HOP-92 NSCLC was found to be 22.9 µM; in the assay on HT29 colon, 34.4 µM; in the assay with SK-MEL-28 melanoma it was 33.1 µM; in the assay with SN12C renal, 34.3 µM; in the assay on NCI-H226 lung it was 48.7 µM; in the assay on SF-268 CNS it was 31.1 µM. Besides, the TGI is 32 µM with NCI-H522 lung, 36.7 µM with U251 CNS, 40.7 µM in the assay with T-47D breast and 33 µM with HCT-15 colon.

In the case of `O=C1CSC(c2cccc(Cl)c2)N1c1c(O)c(Cl)cc(Br)c1Cl` (stereo not given), the TGI was 29.9 µM in the assay with HOP-92 NSCLC; more than 100 µM with HT29 colon; 35.7 µM in the assay with RXF 393 renal; more than 100 µM in the assay with SK-MEL-28 melanoma; more than 100 µM in the assay on SN12C renal; more than 100 µM in the assay with NCI-H226 lung. Moreover, the TGI with SF-268 CNS was more than 100 µM; in the assay with U251 CNS, 72.3 µM; with T-47D breast, 41.7 µM; in the assay on HCT-15 colon it was 28.3 µM.

On to `CSc1nc2c(c(=O)n1C)N=C(c1ccc(Cl)cc1)CC(c1ccccc1)N2` (stereo not given), for which the TGI with HOP-92 NSCLC was more than 100 µM; in the assay with HT29 colon it was 31.6 µM; in the assay on RXF 393 renal, 75.4 µM; in the assay with SK-MEL-28 melanoma, more than 100 µM; in the assay on SN12C renal it was 39.4 µM; in the assay on NCI-H226 lung it was 42.6 µM. For the same compound, the TGI in the assay with NCI-H522 lung is 47.9 µM; in the assay with U251 CNS, more than 100 µM.
